The source of these data is US20260165990A1, “Treatment of Tartaric Acid Toxicity in Dogs with Probenecid” (priority 2022, published 2026).

Data set [1] deals with MDCK cells.
Method: MDCK cells were maintained in EMEM media supplemented with 10% Fetal Bovine Serum and 1% streptomycin. […] Both cell lines were incubated at 37° C. and 5% CO2 until confluency.
For experiments, both cell lines were incubated in triplicate with an endpoint of 72 hours. Treatment concentrations were made using a stock solution of 100 mmol/L potassium bitartrate in complete media. Final treatment concentrations of 5, 10, 25, 50, 75, and 100 mmol/L were reached via serial dilution. To mimic physiological pH of 7.4, 10N NaOH and 10M HCl were used. A positive control of 0.005% hydrogen peroxide was also used.
Release of lactate dehydrogenase (LDH) from the cytosol in response to plasma membrane damage is a common measure of necrotic cell death and was measured utilizing the LDH-Cytotoxicity assay kit according to the manufacturer's protocol (BioVision, Milpitas, CA). Briefly, media from treated MDCK or HK-2 cells was removed and samples placed into a 96 well plate in duplicate. A mixture of WST kit reagent and buffer in a 25:1 ratio was then added to each well. The plate was covered and allowed to incubate at room temperature for 30 minutes. Absorbance was read at 450 nm. To normalize for potential cell confluency differences, cells were solubilized with 0.05% Triton-X, and cellular protein was analyzed using the bicinchoninic acid (BCA) method.
In data set [2] the test system is MDCK cells. Kind of data set: ATP depletion in MDCK cells (CellTiter Glo assay). The class given is cell-based, canine. On the procedure: TTA concentration groups were compared to media alone (Neg.) using one-way ANOVA followed by a Dunnett's post-hoc test. (n=3/group). * p<0.05; ** p<0.005; *** p<0.001; **** p<0.0001.
500 μM probenecid (PBD) protected MDCK cells from 25 mM and 50 mM TTA-induced ATP depletion at 12 & 72 h, assessed using a CellTiter Glo® assay. Groups were compared using one-way ANOVA followed by a Tukey's post-hoc test. (n=3); ***p<0.001, **** p<0.0001 compared to media; $p<0.05 compared to 25 or 50 mM TTA alone.
ATP depletion was determined in MDCK cells as another measure of cytotoxicity of TTA. The results shown in FIG. 3 indicate that ATP depletion was both time-and dose-dependent. In FIG. 4, it can be observed that dose-response curves were obtained for TTA-induced ATP depletion, and the cells became more sensitive at each increasing dose, and with increasing time of exposure to TTA. This established the MDCK cell culture model as a valid predictor of TTA-induced renal pathology in canine kidney in vitro.

The test system of data set [3] is HK-2 cells. In words: LDH release cytotoxicity of tartaric acid in HK-2 cells. The class given is cell-based, human. The source says:
(§1) Absorbance was read at 450 nm.

In data set [4] the test system is MDCK cells transfected with human OAT-4. Kind of data set: LDH release in hOAT-4 transfected MDCK cells. The class given is cell-based, canine. The following applies: 50 mM TTA, 72 h. As to the method:
In order to assess the role that OAT transporters may play in tartaric acid induced nephrotoxicity, MDCK cells were transfected with human OAT-4 and treated with 50 mmol/L of potassium bitartrate. Human (h)OAT-4 cDNA (GenScript, Piscataway, NJ) was purchased and transformed using E. coli (New England Biolabs, Ipswich, MA) to produce higher amounts of cDNA to be used in transfection. E. coli was transformed per New England Biolab's protocol. Briefly, E. coli was thawed, plasmid cDNA was added, and then mixed with manufacturer's SOC solution. The mixture was allowed to incubate at 37° C. for 60 minutes, and was then spread on LB agar ampicillin-100 plates (Sigma Aldrich, St. Louis, MO) and allowed to incubate for 24 hours at 37° C. Colonies were then collected, placed into a solution of LB […] ampicillin-100 broth, and incubated overnight.
Human OAT-4 plasmid preparation with the amplified E. coli was completed using the PureYield Plasmid Miniprep System (Promega, Madison, WI) following manufacturers protocol. Briefly, 4 mL of culture was collected and centrifuged. The supernatant was removed, and the cell pellet was resuspended in 600 μL 1xPBS. […] The concentration of the elucidated cDNA was then measured using a NanoDrop spectrophotometer (yielding cDNA ranging from 264.8 to 762.8 ng/uL). […]
as §1

The test system of data set [5] is canines. The following applies: grape ingestion, tartaric acid equivalent; cited from earlier work.
In data set [6] the test system is MDCK cells. Kind of data set: Probenecid prevention of tartaric acid induced LDH release in MDCK cells. As to the method: When conducting experiments with probenecid (Sigma Aldrich, St. Louis, MO), a stock solution of 2 mmol/L in complete media was made at pH 7.4, then mixed with either complete media or 100 mmol/L tartaric acid to yield both solutions of 1 mmol/L and 500 μmol/L and solutions of 1 mmol/L probenecid+50 mmol/L potassium bitartrate, as well as 500 μmol/L+50 mmol/L potassium bitartrate. MDCK cells were treated and allowed to incubate for 72 hours.
as §1
As TTA is a common, dietary dicarboxylic acid, it is believed to be renally excreted via organic anion-handling transporters. Therefore, to assess the role of OAT-mediated TTA transport, MDCK cells were exposed to 50 mM tartaric acid alone or in combination with 1 mM or 0.5 mM probenecid; a known OAT-1 inhibitor.

The test system of data set [7] is renal tubular excretion. The note with it: canines, effect plateaus at this dose; cited from earlier work.
For data set [8], the system named is dogs. The note with it: cited from earlier work.

Structures are written as SMILES. Read-outs that look alike come from different tables or passages of the source.

On to `O=C(O)C(O)C(O)C(=O)O` (stereo not drawn) [TTA, tartaric acid], for which the LDH release in data set [1] (MDCK cells, 10 mM, 72 h, pH 7.4) stood at 1.769; in data set [1] (MDCK cells, 25 mM, 72 h, pH 7.4), 1.472; in data set [1] (MDCK cells, 50 mM, 72 h, pH 7.4), 1.646; in data set [1] (MDCK cells, 75 mM, 72 h, pH 7.4), 2.540; in data set [1] (MDCK cells, 100 mM, 72 h, pH 7.4), 1.778; in data set [1] (non-transfected MDCK cells, 50 mM TTA, 72 h (transfection experiment)), 2.807. Moreover, the LDH release result was “no statistically significant increase in LDH release” in data set [3] (HK-2 cells, 72 h, pH 7.4, 5-100 mmol/L, vs negative control); 1.213 in data set [4]; 4.302 in data set [6] (50 mM TTA alone, 72 h (probenecid experiment)). In addition, the “lowest concentration with significant increase in TTA-induced cytotoxicity” value in data set [1] (MDCK cells, 72 h of exposure, vs controls) was found to be 10 mmol/L. The ATP depletion entry in data set [2] (function of time and dose of TTA exposure) is “induced significant ATP depletion”. For the same compound, the “TTA-induced LDH release, HK-2 vs. MDCK cells” value in data set [3] (same exposure concentrations across species, two-way ANOVA) was “no significant difference”. Besides, the “ingested dose (as tartaric acid) resulting in significant nephrotoxicity” value in data set [5] is 196 to 1484 mg/kg.

For `CCCN(CCC)S(=O)(=O)c1ccc(C(=O)O)cc1` [probenecid, 4-(dipropylsulfamoyl)benzoic acid], the “oral dose enough to completely suppress renal tubular excretion” value in data set [7] is listed as 6 mg/kg. The “protection from TTA-induced ATP depletion” value in data set [2] (500 μM probenecid, 25 mM and 50 mM TTA, 12 & 72 h) is recorded as “protected”. In addition, the LD50 in data set [8] (IV) is on record as 270 mg/kg. The therapeutic index entry in data set [8] is reported as “high”. Further, the “prevention of TTA-induced cytotoxicity” value in data set [6] (500 μM and 1 mM probenecid) was “completely prevented”. Moreover, the LDH release in data set [6] (0.5 mM probenecid + 50 mM TTA, 72 h) is 1.658; in data set [6] (1 mM probenecid + 50 mM TTA, 72 h) it was 1.518. Also, in data set [6] (probenecid alone at 0.5 mM or 1 mM, 72 h), the “cell death by probenecid alone” value is “did not induce significant cell death”.
